Measurements taken from ChEMBL document CHEMBL1127182, “DNA gyrase inhibitory and antibacterial activity of some flavones(1)” (Bioorg Med Chem Lett, 1993).
Converted amounts (≈) assume the structure as drawn. “And” between values parts separate entries of the source, which are not always exact repeats. Identical values can stand only once.

Key:
[1] = system: Escherichia coli; assay: Tested for antibacterial activity as minimum inhibitory concentration against Escherichia coli KL-16 in the presence of polymyxin B nonapeptide (PBMN) at 1 ug/mL; format: functional
[2] = molecular target: DNA gyrase (Escherichia coli, UniProt P0AES4+P0AES6); assay: In vitro antibacterial activity was determined as inhibitory concentration causing 50% DNA-gyrase supercoiling inhibition (SCI); format: protein-complex assay
[3] = system: Stenotrophomonas maltophilia; assay: Tested for antibacterial activity as minimum inhibitory concentration against Pseudomonas maltophilia 1057 in the presence of polymyxin B nonapeptide (PBMN) at 1 ug/mL; format: functional
[4] = system: Staphylococcus aureus; assay: Tested for antibacterial activity as minimum inhibitory concentration against Staphylococcus aureus strain OC6538; format: functional
[5] = system: Escherichia coli; assay: Tested for antibacterial activity as minimum inhibitory concentration against Escherichia coli-ss in the presence of polymyxin B nonapeptide (PBMN) at 1 ug/mL; format: functional
[6] = system: Salmonella typhimurium; assay: Tested for antibacterial activity as minimum inhibitory concentration against Salmonella Typhimurium 701 in the presence of polymyxin B nonapeptide (PBMN) at 1 ug/mL; format: functional, Salmonella enterica subsp. enterica serovar Typhimurium
[7] = system: Salmonella typhimurium; assay: Tested for antibacterial activity as minimum inhibitory concentration against Salmonella Typhimurium 701 in the absence of polymyxin B nonapeptide (PBMN) at 0 ug/mL; format: functional, Salmonella enterica subsp. enterica serovar Typhimurium; conditions: Salmonella enterica
[8] = system: Escherichia coli; assay: Tested for antibacterial activity as minimum inhibitory concentration against Escherichia coli KL-16 in the absence of polymyxin B nonapeptide (PBMN) at 0 ug/mL; format: functional
[9] = system: Escherichia coli; assay: Tested for antibacterial activity as minimum inhibitory concentration against Escherichia coli-ss in the absence of polymyxin B nonapeptide (PBMN) at 0 ug/mL; format: functional
[10] = system: Stenotrophomonas maltophilia; assay: Tested for antibacterial activity as minimum inhibitory concentration against Pseudomonas maltophilia 1057 in the presence of polymyxin B nonapeptide (PBMN) at 0 ug/mL; format: functional
[11] = system: Staphylococcus epidermidis; assay: Tested for antibacterial activity as minimum inhibitory concentration against Staphylococcus epidermidis strain OC2603; format: functional
[12] = Staphylococcus aureus, read-out: MIC
[13] = Escherichia coli, read-out: MIC
[14] = Salmonella enterica, read-out: MIC

| Structure (SMILES) | MIC [1] | IC50 [2] | MIC [3] | MIC [4, 12] | MIC [5, 13] | MIC [6, 14] | MIC [7] | MIC [8] | MIC [9, 13] | MIC [10] | MIC [11] | MIC [4] | MIC ([6]; Salmonella enterica) | MIC [5] | MIC [6] | MIC [9] |
| --- | --- | --- | --- | --- | --- | --- | --- | --- | --- | --- | --- | --- | --- | --- | --- | --- |
| COc1cc2oc(-c3ccccc3)cc(=O)c2c(O)c1O | > 125 µg/mL | > 1760 µM | > 125 µg/mL | > 125 µg/mL | > 125 µg/mL | > 125 µg/mL | > 125 µg/mL | > 125 µg/mL | > 125 µg/mL | > 125 µg/mL | > 125 µg/mL | – | – | – | – | – |
| COc1cccc(-c2cc(=O)c3c(O)cc(O)cc3o2)c1 | > 125 µg/mL | > 1760 µM | > 125 µg/mL | > 125 µg/mL | > 125 µg/mL | > 125 µg/mL | > 125 µg/mL | > 125 µg/mL | > 125 µg/mL | > 125 µg/mL | > 125 µg/mL | – | – | – | – | – |
| COc1cc(-c2oc3cc(O)cc(O)c3c(=O)c2O)cc(OC)c1OC | > 125 µg/mL | > 1390 µM | > 125 µg/mL | > 125 µg/mL | > 125 µg/mL | > 125 µg/mL | > 125 µg/mL | > 125 µg/mL | > 125 µg/mL | > 125 µg/mL | > 125 µg/mL | – | – | – | – | – |
| O=c1c(O)c(-c2cc(O)cc(O)c2)oc2cc(O)cc(O)c12 | 31.2 µg/mL | 1380 µM | > 125 µg/mL | 500 µg/mL (≈ 1650 µM) | 3.9 µg/mL | 7.8 µg/mL | > 125 µg/mL | > 125 µg/mL | 125 µg/mL (≈ 414 µM) | > 125 µg/mL | 500 µg/mL (≈ 1650 µM) | – | – | – | – | – |
| O=c1cc(-c2ccccc2)oc2c(O)c(O)ccc12 [7,8-DIHYDROXYFLAVONE] | 62.5 µg/mL | 351 µM | 125 µg/mL | – | 7.8 µg/mL | – | > 125 µg/mL | > 125 µg/mL | 125 µg/mL (≈ 492 µM) | > 125 µg/mL | 31.2 µg/mL (≈ 123 µM) | 62.5 µg/mL (≈ 246 µM) | 15.6 µg/mL | – | – | – |
| O=c1cc(-c2ccc(O)cc2)oc2cc(O)cc(O)c12 [APIGENIN] | > 125 µg/mL | 250 µM | > 125 µg/mL | > 125 µg/mL | 7.8 µg/mL | 15.6 µg/mL | > 125 µg/mL | > 125 µg/mL | > 125 µg/mL | > 125 µg/mL | > 125 µg/mL | – | – | – | – | – |
| O=c1cc(-c2ccccc2)oc2cc(O)cc(O)c12 [CHRYSIN] | > 125 µg/mL | > 1970 µM | > 125 µg/mL | > 125 µg/mL | > 125 µg/mL | > 125 µg/mL | > 125 µg/mL | > 125 µg/mL | > 125 µg/mL | > 125 µg/mL | > 125 µg/mL | – | – | – | – | – |
| O=c1oc2c(O)c(O)cc3c(=O)oc4c(O)c(O)cc1c4c23 [ELLAGIC ACID] | 7.8 µg/mL | 10.9 µM | > 125 µg/mL | > 125 µg/mL | 2 µg/mL | 31.2 µg/mL | > 125 µg/mL | > 125 µg/mL | > 125 µg/mL | > 125 µg/mL | > 125 µg/mL | – | – | – | – | – |
| O=c1c(O)c(-c2ccc(O)c(O)c2)oc2cc(O)ccc12 [FISETIN] | 15.6 µg/mL | 291 µM | > 125 µg/mL | > 125 µg/mL | 3.9 µg/mL | 31.2 µg/mL | > 125 µg/mL | > 125 µg/mL | 62.5 µg/mL (≈ 218 µM) | > 125 µg/mL | > 125 µg/mL | – | – | – | – | – |
| O=c1c(O)c(-c2ccccc2)oc2ccccc12 [FLAVONOL] | > 125 µg/mL | > 2100 µM | > 125 µg/mL | > 125 µg/mL | > 125 µg/mL | > 125 µg/mL | > 125 µg/mL | > 125 µg/mL | > 125 µg/mL | > 125 µg/mL | > 125 µg/mL | – | – | – | – | – |
| O=c1c(O)c(-c2ccccc2)oc2cc(O)cc(O)c12 [GALANGIN] | > 125 µg/mL | > 1850 µM | > 125 µg/mL | > 125 µg/mL | > 125 µg/mL | > 125 µg/mL | > 125 µg/mL | > 125 µg/mL | > 125 µg/mL | > 125 µg/mL | > 125 µg/mL | – | – | – | – | – |
| COc1ccc(-c2oc3cc(O)cc(O)c3c(=O)c2O)cc1 [KAEMPFERIDE] | > 125 µg/mL | > 1670 µM | > 125 µg/mL | > 125 µg/mL | > 125 µg/mL | > 125 µg/mL | > 125 µg/mL | > 125 µg/mL | > 125 µg/mL | > 125 µg/mL | > 125 µg/mL | – | – | – | – | – |
| O=c1c(O)c(-c2cc(O)c(O)c(O)c2)oc2cc(O)cc(O)c12 [MYRICETIN] | 15.6 µg/mL | 707 µM | 125 µg/mL | 125 µg/mL (≈ 393 µM) | 3.9 µg/mL | 15.6 µg/mL | > 125 µg/mL | > 125 µg/mL | 62.5 µg/mL (≈ 196 µM) | > 125 µg/mL | 62.5 µg/mL (≈ 196 µM) | – | – | – | – | – |
| CCn1cc(C(=O)O)c(=O)c2ccc(C)nc21 [NALIDIXIC ACID] | 0.5 µg/mL | – | 15.6 µg/mL | 500 µg/mL (≈ 2150 µM) | 0.125 µg/mL | 2 µg/mL | 3.9 µg/mL (≈ 16.8 µM) | 2 µg/mL (≈ 8.61 µM) | 0.5 µg/mL (≈ 2.15 µM) | 62.5 µg/mL | 250 µg/mL (≈ 1080 µM) | – | – | – | – | – |
| CC1COc2c(N3CCN(C)CC3)c(F)cc3c(=O)c(C(=O)O)cn1c23 (stereo not given) [OFLOXACIN] | < 0.015 µg/mL | – | 1 µg/mL | ≤ 0.5 µg/mL | < 0.5 µg/mL | 0.0625 µg/mL | 0.125 µg/mL (≈ 0.346 µM) | 0.0625 µg/mL (≈ 0.173 µM) | < 0.5 µg/mL | 2 µg/mL | ≤ 0.5 µg/mL | – | – | – | – | – |
| O=c1c(O)c(-c2ccc(O)c(O)c2)oc2cc(O)cc(O)c12 [QUERCETIN] | – | 182 µM and 156 µM | > 125 µg/mL | 62.5 µg/mL (≈ 207 µM) | 2 µg/mL | – | > 125 µg/mL | > 125 µg/mL | 62.5 µg/mL (≈ 207 µM) | > 125 µg/mL | – | >125 µg/mL | – | 1 µg/mL | 15.6 µg/mL and 31.25 µg/mL | 31.25 µg/mL (≈ 103 µM) |
